Common to all, as to format: physicochemical
The nature of data set [1]: Solubility analysis of NQ derivatives in KOH by UV-vis spectroscopy. The settings on record: 1 M KOH solution, aqueous buffer, thermodynamic from solid, stirred for 24 hours, upper part measured by UV-vis, substance alone.
Procedure: Excessive amounts of solutions of NQ derivatives were prepared. […] When a further period of time elapsed after stirring was stopped, each solution was divided into two parts (upper and lower parts). 400 microliters (L) of the upper part of the solution was collected and observed by a UV-vis spectrometer. An absorbance was measured to determine concentrations of NQ derivatives.
As a control group, a solution with a known concentration of Lawsone was prepared, and UV-vis spectroscopy of the solution was measured. When absorbance peaks of the control group and a sample of NQ derivatives were compared, concentrations of the samples were calibrated and calculated.
Data set [2] is described as follows: Analysis of reaction of NQ-S to NQ-OH in KOH (cyclic voltammetry and UV-vis spectroscopy). As to conditions: 0.01 M in 1 M KOH, CV; for redox potential: NQ-S right after dissolution. Here is the method:
Initially, 0.01 M NQ-S was dissolved in 1 M KOH and then the NQ-S solution was stayed for few hours. Changes in a chemical structure of the NQ-S solution were observed using cyclic voltammetry and UV-vis spectroscopy.
For the UV-vis spectroscopy, the following three samples were prepared: (i) NQ-S that is just dissolved in KOH (sample 1); (ii) NQ-S dissolved in KOH for 6 hours (sample 2); and (iii) pristine Lawsone (sample 3). In FIG. 2B, a peak observed at 455 nm corresponds to a peak for NQ-OH, and the peak was clearly observed in sample 2.

The nature of data set [3]: Half-cell cyclic voltammetry, kinetic parameters of NQ derivatives. As to conditions: 0.01 M in 1 M KOH; for redox potential difference (average difference of anodic and cathodic redox potentials, ΔEp,avg): glassy carbon electrode, scan rate 10 to 100 mV·s^−1. Here is the method: To observe electrochemical performance of active species, various half-cell tests were performed as follows by using a computer connected potentiostat (SP-240, BioLogic). Ag/AgCl (soaked in 3.0 M NaCl) and Pt wire were used as a reference electrode and a counter electrode, respectively. […] To this end, kinetic parameters of NQ derivatives were measured and compared. To calculate electrochemical properties of NQ derivatives, the CV curves were used. […] A value of D was measured by a Randles-Sevick's equation.

Data set [4] can be described thus: Analysis of ratio of Lawsone and NQ-S (CV curves). The settings on record: 0.1 M NQ-S dissolved in 1 M KOH (one third transformed). How it is done: Samples of Lawsone and NQ-S having different ratios were prepared, and a resistance and a solubility of samples were measured electrochemically (by cyclic voltammetry (CV) and electrochemical impedance spectroscopy (EIS)) and optically (by UV-vis spectroscopy).
[…]; (iv) only Lawsone (0.3 M Lawsone); and (v) only NQ-S (0.3 M NQ-S).

In brackets after ≈: the same amount, converted by molar mass.

Usually solubility stands for the concentration that dissolves in the medium under given conditions. Higher therefore signals a readily soluble substance.

Take `O=C1C=C(O)C(=O)c2ccccc21` [Lawsone, 2-hydroxy-1,4-naphthoquinone, reference compound]: in data set [1], the concentration in solution (solubility at 24 h) came to 420 mM (≈ 73.1 mg/mL). In data set [2], this compound returned a redox potential of −0.55 V vs Ag/AgCl. Moreover, the “diffusion coefficient D” value in data set [3] (CV, Randles-Sevick's equation) was 1.75·10^−6 cm^2·s^−1. In addition, in data set [3], the “redox potential difference (average difference of anodic and cathodic redox potentials, ΔEp,avg)” value is 0.077 V.
Consider `O=C1C=C(S(=O)(=O)[O-])c2ccccc2C1=O.[Na+]` [NQ-S, 1,2-naphthoquinone-4-sulfonic acid sodium salt], for which the “transformation of NQ-S into NQ-OH in KOH” value in data set [2] (staying time 6 hours) is on record as “completely transformed into NQ-OH”. For the same compound, the redox potential in data set [2] was −0.1 V vs Ag/AgCl. Further, the “redox potential difference (average difference of anodic and cathodic redox potentials, ΔEp,avg)” value in data set [3] is 0.077 V. For the same compound, in data set [4], the “desirable NQ-OH formed by transformation of NQ-S” value is 0.033 M.
